Test results as given in PubChem BioAssay (NCI).
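Cells were grown in 96-well plates and exposed to each compound for 48 hours at five concentrations; endpoints were interpolated linearly between bracketing concentrations, or set to the highest concentration if not reached. GI50 is the concentration that inhibits growth by half. The concentration for full growth arrest is given as TGI.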

Columns and labels:
Experiment in all cases: inhibition of tumour cell growth, NCI panel, 48 h
MALME-3M melanoma = tested on: MALME-3M melanoma
SF-295 CNS = tested on: SF-295 CNS
K-562 leukemia = tested on: K-562 leukemia
A549 NSCLC = tested on: A549 NSCLC
LOX IMVI melanoma = tested on: LOX IMVI melanoma
NCI-H522 lung = tested on: NCI-H522 lung
SK-MEL-2 melanoma = tested on: SK-MEL-2 melanoma
786-0 renal = tested on: 786-0 renal
DU-145 prostate = tested on: DU-145 prostate
BT-549 breast = tested on: BT-549 breast

SMILES | GI50 (MALME-3M melanoma) | TGI (MALME-3M melanoma) | GI50 (SF-295 CNS) | TGI (SF-295 CNS) | TGI (K-562 leukemia) | GI50 (A549 NSCLC) | TGI (A549 NSCLC) | GI50 (LOX IMVI melanoma) | TGI (LOX IMVI melanoma) | TGI (NCI-H522 lung) | GI50 (SK-MEL-2 melanoma) | TGI (SK-MEL-2 melanoma) | GI50 (786-0 renal) | TGI (786-0 renal) | GI50 (DU-145 prostate) | TGI (DU-145 prostate) | GI50 (K-562 leukemia) | GI50 (NCI-H522 lung) | GI50 (BT-549 breast) | TGI (BT-549 breast)
COc1ccc(/C=C/C(=O)c2sc(-n3nc(-c4ccccc4)cc3-c3ccccc3)nc2C)cc1 | > 100 µM | > 100 µM | > 100 µM | > 100 µM | > 100 µM | > 100 µM | > 100 µM | > 100 µM | > 100 µM | > 100 µM | > 100 µM | > 100 µM | > 100 µM | > 100 µM |  |  |  |  |  | 
CCCCCCCCCCCC[n+]1ccc2ccccc2c1 |  |  | 0.882 µM | 2.74 µM | 1.96 µM | 1.75 µM | 3.38 µM |  |  | 1.88 µM | 1.5 µM | 3.88 µM | 1.49 µM | 2.93 µM | 1.18 µM | 2.74 µM | 0.247 µM | 0.41 µM | 0.907 µM | 2.49 µM
NC(=O)NC1C(C(N)=O)N(Cc2ccccc2)C(=O)N1Cc1ccccc1 (stereo unspecified) |  | > 100 µM |  | > 100 µM | > 100 µM |  | > 100 µM |  | > 100 µM | > 100 µM |  | > 100 µM |  | > 100 µM |  |  |  |  |  | 
COc1cc(CCc2ccc(N)cc2)cc(OC)c1OC |  | > 80 µM |  | > 61.6 µM | > 100 µM |  | > 100 µM |  | > 100 µM | > 83.4 µM |  | 82.6 µM |  | > 100 µM |  |  |  |  |  | 
Nc1ncnc2c1ncn2C1CC(OCc2ccccc2[N+](=O)[O-])C(CO)O1 (stereo unspecified) |  | > 50 µM |  | > 50 µM | > 50 µM |  | > 50 µM |  | > 50 µM | 35.9 µM |  | > 50 µM |  | > 50 µM |  |  |  |  |  | 
NC(=S)c1c(N)n(C2OC(CO)C(O)C2O)c2ncnc(N)c12 (stereo unspecified) | 0.426 µM | 2.23 µM | 0.659 µM | > 27.1 µM | 0.494 µM | 0.301 µM | > 100 µM |  |  | 0.479 µM | 0.297 µM | 1.07 µM | 0.304 µM |  | 0.278 µM | > 100 µM | 0.0622 µM | 0.188 µM | 0.17 µM | 0.475 µM
COc1cc2nc3cc([N+](=O)[O-])ccc3c(NCCNCC(C)(C)O)c2cc1OC | 0.622 µM | 1.97 µM | 0.517 µM | 3.13 µM |  | 1.22 µM | 5.64 µM | 0.715 µM | 2.51 µM | 1.04 µM | 0.432 µM | 1.75 µM | 1.51 µM | 4.04 µM | 0.44 µM | 2.34 µM |  | 0.256 µM | 1.84 µM | 4.14 µM
CN(c1ccccc1)c1c(Cl)c(=O)oc2c1ccc1occc12 |  | > 100 µM |  | > 100 µM | > 100 µM |  | > 100 µM |  | > 100 µM | > 100 µM |  | > 100 µM |  | > 100 µM |  |  |  |  |  | 
CN1c2ccccc2N(C(=O)c2ccccc2)C(CC(=O)O)c2cccn21 (stereo unspecified) |  | > 100 µM |  | > 100 µM | > 100 µM |  | > 100 µM |  | > 100 µM | > 100 µM |  | > 100 µM |  | > 100 µM |  |  |  |  |  | 
CC(SC(=O)Nc1ccc(N=Nc2ccccc2)cc1)C(=O)O (stereo unspecified) |  |  |  | > 100 µM | > 100 µM |  | > 100 µM |  | > 100 µM | > 100 µM |  | > 100 µM |  | > 100 µM |  |  |  |  |  | 
O=C1Cc2cc(C(=O)NC3C[C@H]4CC[C@@H](C3)N4S(=O)(=O)CC3CCN(CCCC(F)(F)F)CC3)c(Cl)cc2N1 (stereo partly specified) | > 100 µM | > 100 µM | > 100 µM | > 100 µM |  | > 100 µM | > 100 µM | > 100 µM | > 100 µM | > 100 µM | > 100 µM | > 100 µM | > 100 µM | > 100 µM | > 100 µM | > 100 µM |  | > 100 µM | > 100 µM | > 100 µM
COc1ccc(/C(C#N)=C2C=C/C(=N/O)c3ccccc3\2)cc1 |  |  | 0.687 µM | 13 µM | 14.3 µM | 0.339 µM | 13.4 µM | 0.382 µM | 14.7 µM | 0.838 µM | 0.415 µM | 12.3 µM | 0.457 µM | 15 µM | 0.34 µM | 8.85 µM | 0.105 µM | 0.0891 µM | 0.333 µM | 8.18 µM
O=C(NNc1ccccc1)/C(=C/c1ccc2c(c1)OCO2)NC(=O)c1ccccc1 |  | > 100 µM |  | > 100 µM | > 100 µM |  | > 100 µM |  | > 100 µM | > 100 µM |  | > 100 µM |  | > 100 µM |  |  |  |  |  | 
CC(=O)OC1COC(n2c(=S)n(-c3ccccc3)c(=O)c3ccccc32)C(OC(C)=O)C1OC(C)=O (stereo unspecified) |  | > 100 µM |  | 85.7 µM | > 100 µM |  | > 100 µM |  | > 100 µM | > 100 µM |  | > 100 µM |  | > 100 µM |  |  |  |  |  | 
c1ccc2c(c1)cc1n2CC2CN=NC12 (stereo unspecified) |  | > 100 µM |  | > 100 µM | > 100 µM |  | > 100 µM |  | > 100 µM | > 100 µM |  | > 100 µM |  | > 100 µM |  |  |  |  |  | 
CC1(C)C(=O)C(C)(C)C1=S |  | > 100 µM |  | > 100 µM | > 100 µM |  | > 100 µM |  | > 100 µM | > 100 µM |  | > 100 µM |  | > 100 µM |  |  |  |  |  | 
CCOC(=O)c1cnc2c(C)cccc2c1Nc1ccc(C(C)=O)cc1 | 28.7 µM | > 100 µM | 36.2 µM | > 100 µM | > 100 µM | 38.8 µM | > 100 µM | 47 µM | > 100 µM | > 100 µM |  |  | 16.9 µM | 42.3 µM | 33.3 µM | > 100 µM | > 100 µM | 14.9 µM | 16.1 µM | 59.3 µM
CCSc1c2ccccc2c(-c2nc(F)nc(F)n2)n1CCc1ccccc1 |  | > 100 µM |  | > 100 µM | > 100 µM |  | > 100 µM |  | > 100 µM | > 100 µM |  | > 100 µM |  | > 100 µM |  |  |  |  |  | 
